A word on the TGI: it is the concentration at which net growth stops. High values mean lower sensitivity of the cells, low ones greater sensitivity of the cells. As a reminder, the GI50 is the concentration that inhibits growth by half.

Several values for one entry are separate records, joined by “and”; a condition that tells them apart may be missing. Equal values may be shown once.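 Following 48 hours of exposure in 96-well plates, responses at five concentrations were used to interpolate endpoints linearly. GI50 = concentration required for 50% inhibition of growth. TGI marks complete inhibition of growth.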 Some results are limits rather than exact numbers.

What all share (test): DTP human tumour cell line panel, 48 h
The subject of assay [1] is HCT-116 colon.
Assay [2] concerns SK-MEL-28 melanoma.
For assay [3], the system named is SN12C renal.
Assay [4] relates to SNB-19 CNS.
The test system of assay [5] is TK-10 renal.
The subject of assay [6] is U251 CNS.
For assay [7], the system named is UACC-62 melanoma.
Assay [8] concerns UO-31 renal.
Assay [9] deals with OVCAR-4 ovarian.

For `Nc1ccn(CC(CO)CC(c2ccccc2)P(=O)(O)O)c(=O)n1` (stereo unspecified), the TGI in [1], in [2], in assay [3], in assay [4], in assay [5] and in assay [6] was above 100 µM in each case. Also, the TGI in [7] and in assay [8] was above 100 µM throughout. Further, in assay [6], the GI50 was 28.2 µM and > 100 µM.
Regarding `CCN1C(=O)C(N=[N+]=[N-])(c2ccccc2)C(=O)c2ccccc21` (stereo unspecified), the TGI in assay [1], in assay [9], in assay [2], in assay [3], in assay [4] and in [5] was above 100 µM in each case. Besides, the TGI in [6], in assay [7] and in assay [8] was above 100 µM in each case.
`COc1cc(C2C(C(=O)OCc3ccccc3)=C(C)NC(C)=C2C(=O)OCc2ccccc2)cc(OC)c1OC`: the GI50 in [1] was 2.54 µM; in assay [9] it was 3.39 µM; in assay [4], 5.73 µM; in assay [6] it was 4.37 µM; in assay [7], 3.62 µM; in [8], 2.22 µM. The TGI in assay [1], in assay [9], in assay [4], in assay [6], in assay [7] and in assay [8] was above 100 µM in each case.
Regarding `COC(=O)C(C(=O)C(=O)Nc1ccc([N+](=O)[O-])cc1)c1nc2cc(C)c(C)cc2[nH]c1=O` (stereo unspecified), the TGI in assay [1], in assay [9], in assay [2], in assay [3], in [4] and in [5] was above 100 µM throughout. Further, the TGI in assay [6], in [7] and in [8] was above 100 µM throughout.
For the molecule `CCOC(=O)/C(=C/c1ccc(Cl)cc1)N(CC)CC`, the TGI in [1], in [9], in assay [2], in assay [3], in assay [5] and in assay [6] was above 100 µM each time. For the same molecule, the TGI in assay [7] and in [8] was above 100 µM each time.
In the case of `CCOC(=O)NN(C(=O)OCC)C(C(=O)c1ccc(Cl)cc1)=C1NCCN1`, the TGI in [1], in assay [9], in assay [2], in [3], in assay [4] and in assay [5] was above 100 µM throughout. The TGI in assay [6], in [7] and in assay [8] was above 100 µM each time.
Consider `CC1=C2[C@@H](c3ccccc3)C3C=CC2(c2ccccc23)N(C(=O)Nc2cccc3ccccc23)C1=O` (stereo partly specified), for which the TGI in assay [1], in assay [9], in assay [2], in [3], in [4] and in [6] was above 100 µM in each case. In addition, the TGI in assay [7] and in assay [8] was above 100 µM throughout.
On to `CCOC1=C2C(C)(CCC3[C@@]4(C)C=CC(=O)C(C)(C)C4CC(O)[C@@]23C)C(c2ccoc2)C1=O` (stereo partly specified), for which the TGI in assay [1] is 23.7 µM; in assay [9], above 100 µM; in [2], 30.5 µM; in assay [3] it was 58 µM; in assay [4], above 100 µM; in assay [5] it was 61.3 µM. The TGI in [6] is 34.8 µM; in [7], 57.7 µM; in assay [8] it was 29.1 µM.
As for `NC(=O)OCC(COc1ccc(Cl)cc1)OC(=O)c1cc([N+](=O)[O-])cc([N+](=O)[O-])c1` (stereo unspecified), the TGI in [1], in assay [2], in [3], in assay [4], in [5] and in [6] was above 100 µM throughout. The TGI in assay [7] and in assay [8] was above 100 µM each time.
For the molecule `COC(=O)C1CCC[C@H]2C(CO)=C(C)C(=O)[C@@H]12` (stereo partly specified), the TGI in [1], in [9], in assay [2], in assay [3], in [4] and in [5] was above 100 µM in each case. Further, the TGI in [6], in assay [7] and in [8] was above 100 µM in each case.
For `N#Cc1nc(Nc2ccc(Cl)cc2)sc1N`, the TGI in assay [1] is above 100 µM; in assay [9], above 72.5 µM; in assay [2] it was above 70.8 µM; in [3], above 69.1 µM; in [4], above 100 µM; in assay [5], above 76.6 µM. The TGI in assay [6] is 34.1 µM; in assay [7] it was 42.8 µM; in assay [8], 26.8 µM.
Regarding `N#CC(C#N)=Cc1ccc(Oc2ccccc2)cc1`, the TGI was 44 µM in assay [1]; 25.3 µM in assay [2]; 20.6 µM in assay [3]; above 100 µM in [4]; above 100 µM in [5]; above 57 µM in assay [6]. For the same molecule, the TGI in assay [7] was 35 µM; in assay [8], above 71.4 µM.
As for `Cc1ccc(S(=O)(=O)NC(=O)C#CCOC2CCCCO2)cc1` (stereo unspecified), the TGI in assay [1], in [9], in [2], in [3], in [4] and in assay [5] was above 100 µM in each case. For the same molecule, the TGI in assay [6], in assay [7] and in assay [8] was above 100 µM throughout.
Consider `O=C(NCCCCCCNC(=O)NC1OCC(O)C(O)C1O)NC1OCC(O)C(O)C1O` (stereo unspecified), for which the TGI in [1], in assay [9], in [2], in assay [3], in [5] and in assay [6] was above 100 µM each time. In assay [7], the TGI is above 100 µM.
Take `COc1cc2c3c(c1OCc1ccccc1)NCCC3NCC2` (stereo unspecified): the concentration for total growth inhibition (TGI) in assay [1], in assay [9], in [3], in [4], in [5] and in assay [6] was above 100 µM each time. Moreover, the TGI in assay [7] and in assay [8] was above 100 µM in each case.

The values above are taken from PubChem BioAssay (NCI).
